According to US6531628B1, “Substantive water-soluble 2-hydroxy sulfobetaines of cinnamidoalkylamines” (Galaxy Surfactants Ltd., priority 2001, dated 2003):
“Also recorded” adds a separate entry of the source.

How the values were obtained:
[1] = Molar extinction coefficient (UV absorption); assay type: physicochemical; settings: at λmax 306 nm in water
[2] = Compatibility with anionic surfactant in formulation; assay type: physicochemical; settings: sodium lauryl ether sulphate based transparent shampoo / transparent bathing bar; N,N-dimethyl ammonium)-2-hydroxy propane-1-sulph
Description: The major ingredients were mixed with heating to 50° C. until a uniform homogeneous mixture was formed. The resulting mixture was then cooled to room temperature with continuous stirring. The required chelating agent, colour, perfume were added. The viscosity was adjusted to 2500 cps with sodium chloride.
All ingredients were heated together under stirring to 70° C. till the reaction mass became homogenous and transparent. The reaction mass was cooled to 40° C. and the required amounts of chelating agents, perfume and colour were added. The molten mass was cast in moulds of desired shape to yield transparent bathing bar.

molar extinction coefficient, ∈ [1]: 24,000
Structure (SMILES): COc1ccc(C=CC(=O)NCCC[N+](C)(C)CC(O)CS(=O)(=O)[O-])cc1 (centres unmarked) [Example I, 3-(N-p-Methoxy Cinnamidopropyl, N,N-Dimethyl Ammonium)-2-hydroxy Propane-1-sulphonate]
compatibility with anionic surfactant [2]: completely compatible; also recorded: total compatibility
